Reference: patent US10730851B2, “Polymorph of triaryldimethylpiperazine dihydrochloride and preparation method and application thereof” (priority 2016, dated 2020)
In brackets after ≈: the same amount, converted by molar mass.

Assays:
[1] = Dynamic solubility test in water, SGF, FeSSIF, FaSSIF; format: physicochemical
Experimental: The dynamic solubility of a free base, polymorph forms B, P, F, J and O in water or a biological medium such as Stimulated Gastric Fluid (SGF), Fed State Simulated Intestinal Fluid (FeSSIF) or Fasted State Simulated Intestinal Fluid (FaSSIF) is determined.
0.2 g sodium chloride and 0.1 g Triton X-100 is weighed and placed into a 100 mL volumetric flask. Purified water is added to dissolve. A stir is performed until the solid is completely dissolved. About 135 μL concentrated hydrochloric acid solution (37%, […]) is added, then the pH is adjusted to 1.8 with […] hydrochloric acid or 1 mmoL/L sodium hydroxide. Finally, the volume is fixed with purified water to obtain Stimulated Gastric Fluid (SGF) for later use.
Each of 0.41 mL glacial acetic acid, 0.20 g sodium hydroxide and 0.59 g sodium chloride is weighed and placed to a 50 mL volumetric flask. About 48 mL purified water is added to dissolve, the pH is adjusted to 5.0 with 1 mmoL/L hydrochloric acid or 1 mmoL/L sodium hydroxide, and the volume is fixed with purified water. Then 0.56 g of Simulated Intestinal Fluid powder (SIF powder for short, which is composed of […] with a molar ratio of 4:1) is added, stirred and ultrasonically dissolved to obtain Fed State Simulated Intestinal Fluid (FeSSIF) for later use.
Each of 0.17 g of anhydrous sodium dihydrogen phosphate (NaH2PO4), 0.021 g of sodium hydroxide and 0.31 g of sodium chloride is weighed and placed into a 50 mL volumetric flask. About 48 mL of purified water is added to dissolve, the pH is adjusted to 6.5 with 1 mmoL/L hydrochloric acid or 1 mmoL/L sodium hydroxide, and the volume is fixed with purified water. 0.11 g of SIF powder is added, stirred and ultrasonically dissolved to obtain Fasted State Simulated Intestinal Fluid (FaSSIF) for later use.
Each 30 mg of the free base, and polymorph forms B, P, F, J and O are weighed. 3 mL of purified water, Stimulated Gastric Fluid (SGF), Fed State Simulated Intestinal Fluid (FeSSIF) or Fasted State Simulated Intestinal Fluid (FaSSIF)) is added and oscillated at room temperature. 0.6 mL of suspension is taken each time at a set time point, filtered and separated with a 0.45 μm nylon filter membrane, then XRPD characterization is performed on the solid sample, and the concentration in the clear solution is measured by HPLC.

[2] = Relative bioavailability test; format: in vivo, SPF-grade SD rats; details: rats, 20 mg/kg·bw by gavage in 0.5% CMC-Na, x ± s, n = 6, 20 mg/kg
Experimental: HPLC-MS/MS method is used to detect the blood drug concentration of target drugs in SPF-grade SD rats, and the relative bioavailability of 0.5% CMC-Na suspension of a free base and 0.5% CMC-Na solution of a polymorph form P are calculated and compared.
60.46 mg of a free base is accurately weighed and placed into a 15 mL centrifuge tube, 12 mL of 0.5% CMC-Na solution is measured and added into the centrifuge tube with a measuring cylinder, vortexed for 5 min, and ultrasonically dispersed for 15 min to obtain 0.5% CMC-Na suspension of free base with a concentration of 5.04 mg/ml, which is currently formulated when using and vibrated at any time during administration.
60.05 mg of a polymorph form P is accurately weighed and placed into a 15 mL centrifuge tube, 12 mL of 0.5% CMC-Na solution is measured and added into the centrifuge tube with a measuring cylinder, vortexed for 5 min, and ultrasonically dispersed for 15 min to obtain 0.5% CMC-Na solution of 5.00 mg/mL polymorph form P, which is currently formulated when using.
Twelve SPF-grade SD rats are selected and randomly divided into a free base group and a polymorph form P group with 6 rats in each group (both male and female). Animals are fasted for 12 h but have free access to water. Weighing is performed and, the administration volume of each rat is calculated according to the animal weight, so that the administration dose is 20 mg/kg·bw. During administration, the drugs are each administrated by gavage, and 0.5% CMC-Na suspension/solution of the above two target drugs are extracted by 2 mL syringe respectively. The gavage needle is inserted into the stomach from the corner of the rat's mouth and pushed the solution thereto.
Blood is collected from the fundus venous plexus of rats at 0.2 mL before (0 h) and 0.5, 1, 2, 4, 6, 8, 12 and 24 h after administration, anticoagulated with 300 IU/mL heparin (1:20) and centrifuged (3000 r/min) for 15 min. After plasma separation, the blood drug concentration of the target drug is determined by HPLC-MS/MS.
Referring to the above-mentioned bioavailability test of the polymorph form P, the bioavailability tests of polymorph forms F, O, B and J are conducted respectively. Different from the bioavailability test of the polymorph form P, rats are given 0.5% CMC-Na solution of the polymorph form F, O, B or J by gavage respectively. Other operations are the same as the above bioavailability test.

SPF-grade SD rats = experiment: Forced swimming test; format: in vivo; details: 40 mg/kg Ip, three times (23.5 h, 5 h, 1 h before test), x ± SEM
Experimental: Forced swimming test is used to test the antidepressant effects of polymorph forms P, F, O, B and J.
the swimming test equipment is a transparent glass round cylinder with a height of 46 cm and an inner diameter of 20 cm, the test water temperature is 23° C.˜25° C., the test water depth is 30 cm, and each cylinder is used only once.
300 mg of a polymorph form P is weighed with an electronic balance, and the polymorph form P is dissolved with 0.9% normal saline, and finally the volume is fixed to 100 mL with 0.9% normal saline, at this time, the concentration of dihydrochloride in the experimental reagent is 3 mg/mL for later use.
600 mg of a polymorph form P is weighed with an electronic balance, and the polymorph form P is dissolved with 0.9% normal saline, and finally the volume is fixed to 100 mL with 0.9% normal saline, at this time, the concentration of dihydrochloride in the experimental reagent is 6 mg/mL for later use.
400 mg of desipramine (DMI) is weighed with an electronic balance, DMI is dissolved with 0.9% normal saline, and then the volume is fixed to 100 mL with 0.9% normal saline for later use.
Forty SPF-grade SD rats are prepared and randomly divided into 4 groups, namely vehicle control group, positive control group, experimental group 1 and experimental group 2, with 10 rats in each group. The day before the test, the rats were placed in water for 15 min to pre-swim for 15 min in advance to adapt to the swimming test environment, then taken out and dried, placed in the cage under an infrared lamp for 15 min and then placed in the original cage. After 24 h, a formal swimming test is conducted, that is, the rats are put into water again after 24 h, and the rats are continuously observed for 5 min. The swimming process are needed to be photographed. The drug is administered during two swimming sessions.
The positive control group containing DMI is administered three times, at 23.5 h, 5 h and 1 h before the formal swimming test respectively. Vehicle control group, experimental group 1 and experimental group 2 are each administered only once and subcutaneously within 1 h.
The behaviors of the rats are scored by the scorer every 5 seconds after recording the experiment.
1) Static—when the rat floats on the water surface without struggling and moves only to keep its head above the water surface, the rat is evaluated as static;
2) Swimming—if the rats have obvious swimming behaviors, not only to keep their heads above the water surface, or to travel around in a round cylinder, they are evaluated as swimming;
3) Wall climbing—the rats' front paws have obvious behavior of entering and leaving the water surface, usually, rats are evaluated as wall climbing in front of the round cylinder wall.
All behavioral are scored by a single person. To avoid bias of observation, the scorer only observed and scored without knowing the administration situations. Then multiple test fragments are randomly selected, and the scorer will score the second round to determine the accuracy of observation. The test video is scored again by the second scorer to determine the accuracy between scorers. The second scorer are also required to observe without knowing the drug administration. Finally, in order to determine the effectiveness of the method, the first scorer scored again and recorded the duration of various behaviors with a stopwatch.
SPSSwin11.0 software is used for variance analysis. One-way variance analysis is used for homogeneity of variance, and Dunnett test is used for heterogeneity of variance.

Compound: CC1CCN(C(=O)c2ccc([C@H](c3cccc(O)c3)N3C[C@@H](C)N(Cc4cccc(F)c4)C[C@@H]3C)cc2)CC1 [free base]
- pH in clear solution ([1]; FaSSIF, Time 1): 6.5
- Crystal form of insoluble solid sample ([1]; FaSSIF, Time 1, XRPD): invariability
- Solubility ([1]; FaSSIF, Time 1, room temperature): 13 µg/mL (≈ 24.5 µM)
- pH in clear solution ([1]; FaSSIF, Time 2): 6.5
- Crystal form of insoluble solid sample ([1]; FaSSIF, Time 2, XRPD): invariability
- Solubility ([1]; FaSSIF, Time 2, room temperature): 17 µg/mL (≈ 32.1 µM)
- pH in clear solution ([1]; FaSSIF, Time 4): 6.5
- Crystal form of insoluble solid sample ([1]; FaSSIF, Time 4, XRPD): invariability
- Solubility ([1]; FaSSIF, Time 4, room temperature): 16 µg/mL (≈ 30.2 µM)
- pH in clear solution ([1]; FaSSIF, Time 24): 6.5
- Crystal form of insoluble solid sample ([1]; FaSSIF, Time 24, XRPD): invariability
- Solubility ([1]; FaSSIF, Time 24, room temperature): 27 µg/mL (≈ 51 µM)
- pH in clear solution ([1]; FeSSIF, Time 1): 4.9
- Crystal form of insoluble solid sample ([1]; FeSSIF, Time 1, XRPD): invariability
- Solubility ([1]; FeSSIF, Time 1, room temperature): 59 µg/mL (≈ 111 µM)
- pH in clear solution ([1]; FeSSIF, Time 2): 5.0
- Crystal form of insoluble solid sample ([1]; FeSSIF, Time 2, XRPD): invariability
- Solubility ([1]; FeSSIF, Time 2, room temperature): 63 µg/mL (≈ 119 µM)
- pH in clear solution ([1]; FeSSIF, Time 4): 5.0
- Crystal form of insoluble solid sample ([1]; FeSSIF, Time 4, XRPD): invariability
- Solubility ([1]; FeSSIF, Time 4, room temperature): 62 µg/mL (≈ 117 µM)
- pH in clear solution ([1]; FeSSIF, Time 24): 5.0
- Crystal form of insoluble solid sample ([1]; FeSSIF, Time 24, XRPD): invariability
- Solubility ([1]; FeSSIF, Time 24, room temperature): 81 µg/mL (≈ 153 µM)
- pH in clear solution ([1]; SGF, Time 1): 1.9
- Crystal form of insoluble solid sample ([1]; SGF, Time 1, XRPD): invariability
- Solubility ([1]; SGF, Time 1, room temperature): 2100 µg/mL (≈ 3960 µM)
- pH in clear solution ([1]; SGF, Time 2): 1.9
- Crystal form of insoluble solid sample ([1]; SGF, Time 2, XRPD): invariability
- Solubility ([1]; SGF, Time 2, room temperature): 2700 µg/mL (≈ 5100 µM)
- pH in clear solution ([1]; SGF, Time 4): 1.9
- Crystal form of insoluble solid sample ([1]; SGF, Time 4, XRPD): invariability
- Solubility ([1]; SGF, Time 4, room temperature): 2700 µg/mL (≈ 5100 µM)
- pH in clear solution ([1]; SGF, Time 24): 2.1
- Crystal form of insoluble solid sample ([1]; SGF, Time 24, XRPD): invariability
- Solubility ([1]; SGF, Time 24, room temperature): 3200 µg/mL (≈ 6040 µM)
- pH in clear solution ([1]; Water, Time 1): 5.6
- pH in clear solution ([1]; Water, Time 2): 5.7
- Crystal form of insoluble solid sample ([1]; Water, Time 2, XRPD): invariability
- Solubility ([1]; Water, Time 2, room temperature): <LOQ
- pH in clear solution ([1]; Water, Time 4): 5.6
- Crystal form of insoluble solid sample ([1]; Water, Time 4, XRPD): invariability
- Solubility ([1]; Water, Time 4, room temperature): <LOQ
- pH in clear solution ([1]; Water, Time 24): 5.8
- Crystal form of insoluble solid sample ([1]; Water, Time 24, XRPD): invariability
- Solubility ([1]; Water, Time 24, room temperature): <LOQ
- AUC(0-24h) [2]: 288.6 ng·h/mL
- AUC(0-24h) ([2]; listed as Free base): 288.6 ± 64.7 ng·h/mL
- Cmax ([2]; listed as Free base): 51.68 ± 6.56 ng/mL
- Tmax ([2]; listed as Free base): 3.6 ± 0.9 h
- t1/2z ([2]; listed as Free base): 2.4 ± 0.8 h

Compound: CNCCCN1c2ccccc2CCc2ccccc21 [desipramine, reference compound]
- Behavior duration, Static (SPF-grade SD rats): 37.5 ± 6.5 s
- Behavior duration, Swimming (SPF-grade SD rats): 143.0 ± 15.5 s
- Behavior duration, Wall climbing (SPF-grade SD rats): 119.5 ± 12.0 s
- Number of behaviors, Swimming (SPF-grade SD rats): 28.6 ± 3.1 times
- Number of behaviors, Wall climbing (SPF-grade SD rats): 23.9 ± 2.4 times
- Number of behaviors, Static (SPF-grade SD rats; 5 min observation): 7.5 ± 1.3 times
